Values quoted from earlier work, collected in patent US20140088035A1, “TREATING SCHIZOPHRENIA” (THE GENERAL HOSPITAL CORPORATION, priority 2010, published 2014).

Tested on: schizophrenia patients
Conditions: vitamin supplementation regimens; Levine et al. 2006, Godfrey et al. 1990

Nc1nc2ncc(CNc3ccc(C(=O)N[C@@H](CCC(=O)O)C(=O)O)cc3)nc2c(=O)[nH]1 [folate, pteroyl-L-glutamic acid]
symptomatic improvement in schizophrenia patients: associated with symptomatic improvement
